# Experimental data published in patent US8735398B2 (Bristol-Myers Squibb Company, priority 2009, dated 2014).
# Read-outs that look alike come from different tables or passages of the source.
# Test system: HCV 1b genotype
# Test: HCV replicon assay (HCV-neo replicon cells, wild-type)
# Type: cell-based, Hepatitis C virus
# Details: HCV 1b genotype replicon
# Outline: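 HCV-neo replicon cells (wild-type) and replicon cells carrying NS5A resistance substitutions were treated with compounds; assay per O'Boyle et al. 2005, with luciferase-reporter read-out variants also used.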
# [1] = Hepatitis C virus, class symbol, read-out: EC50 Range against HCV 1b
# [2] = Hepatitis C virus, class symbols, read-out: EC50 Range against HCV 1b
# [3] = class symbols, read-out: EC50 Range against HCV 1b
# [4] = Hepatitis C virus, read-out: EC50 1b
# [5] = class symbol, read-out: EC50 Range against HCV 1b
Compound,EC50 [1],EC50 [2],other results
"CCOC(=O)Cc1nc(-c2ccc(NC(=O)[C@@H]3CCCN3C(=O)OCc3ccccc3)cc2)c(-c2ccc(NC(=O)[C@@H]3CCCN3C(=O)OCc3ccccc3)cc2)o1 [OL-2, 4,5-bis[4-[[[(2S)-1-[(phenylmethoxy)carbonyl]-2-pyrrolidinyl]carbonyl]amino]phenyl]-2-oxazoleacetic acid, ethyl ester]",1000 to 10000 nM,,
"Cn1cc(C(=O)C(=O)N2CCC[C@H]2C(=O)Nc2ccc(-c3cnc(-c4ccc(NC(=O)[C@@H]5CCCN5C(=O)C(=O)c5cn(C)c6ccccc56)cc4)o3)cc2)c2ccccc21 [JR-1, (2S,2′S)-N,N′-(2,5-oxazolediyldi-4,1-phenylene)bis[1-[2-(1-methyl-1H-indol-3-yl)-1,2-dioxoethyl]-2-pyrrolidinecarboxamide]]",,100 to 999 nM,
"Cn1cc(C(=O)N2CCC[C@H]2C(=O)Nc2ccc(-c3nnc(-c4ccc(NC(=O)[C@@H]5CCCN5C(=O)c5cn(C)c6ccccc56)cc4)o3)cc2)c2ccccc21 [RK-42, (2S,2′S)-N,N′-(1,3,4-oxadiazole-2,5-diyldi-4,1-phenylene)bis(1-((1-methyl-1H-indol-3-yl)carbonyl)-2-pyrrolidinecarboxamide)]",,1000 to 10000 nM,
"CN(C)[C@H](C(=O)N1CCC[C@H]1C(=O)Nc1ccc(-c2cnc(-c3ccc(NC(=O)[C@@H]4CCCN4C(=O)[C@H]([C@H](O)c4ccccc4)N(C)C)cc3)o2)cc1)[C@H](O)c1ccccc1 [JR-14, (S,R,2S)-N,N′-(4,4′-(oxazole-2,5-diyl)bis(4,1-phenylene))bis(1-((2S,3R)-2-(dimethylamino)-3-hydroxy-3-phenylpropanoyl)pyrrolidine-2-carboxamide)]",,,EC50 [3]: 1000 to 10000 nM
"O=C(Nc1ccc(-c2cnc(-c3ccc(NC(=O)[C@@H]4CCCN4C(=O)[C@@H]4CCCN4)cc3)o2)cc1)[C@@H]1CCCN1C(=O)[C@@H]1CCCN1 [Example D-34, (2S,2′S)-N,N′-(1,3-oxazole-2,5-diyldi-4,1-phenylene)bis(1-((2S)-2-pyrrolidinylcarbonyl)-2-pyrrolidinecarboxamide)]",1000 to 10000 nM,,
"COc1cccc2c(C(=O)N3CCC[C@H]3C(=O)Nc3ccc(-c4cnc(-c5ccc(NC(=O)[C@@H]6CCCN6C(=O)c6nc(Cl)cc7c(OC)cccc67)cc5)o4)cc3)nc(Cl)cc12 [OL-52, (2S,2′S)-N,N′-(1,3-oxazole-2,5-diyldi-4,1-phenylene)bis(1-((3-chloro-5-methoxy-1-isoquinolinyl)carbonyl)-2-pyrrolidinecarboxamide)]",100 to 999 nM,,EC50 [4]: 30 nM
"O=C(Nc1ccc(-c2n[nH]c(=O)n2-c2ccc(NC(=O)[C@@H]3CCCN3C(=O)OCc3ccccc3)cc2)cc1)[C@@H]1CCCN1C(=O)OCc1ccccc1 [OL-13, (2S,2′S)-2,2′-[(1,5-dihydro-5-oxo-4H-1,2,4-triazole-3,4-diyl)bis(4,1-phenyleneiminocarbonyl)]bis-1-pyrrolidinecarboxylic acid, bis(phenylmethyl) ester,]",1000 to 10000 nM,,
CN(C)Cc1nc(-c2ccc(NC(=O)[C@@H]3CCCN3C(=O)Cc3ccccc3)cc2)c(-c2ccc(NC(=O)[C@@H]3CCCN3C(=O)Cc3ccccc3)cc2)o1 [OL-6],1000 to 10000 nM,,
"O=C(Nc1ccc(-c2cnc(-c3ccc(NC(=O)[C@@H]4CCCN4C(=O)C(O)c4ccccn4)cc3)o2)cc1)[C@@H]1CCCN1C(=O)C(O)c1ccccn1 (stereo partly drawn) [Example D-14, (2S,2′S)-N,N′-(1,3-oxazole-2,5-diyldi-4,1-phenylene)bis(1-(hydroxy(2-pyridinyl)acetyl)-2-pyrrolidinecarboxamide)]",100 to 999 nM,,
"Cn1ccnc1C(O)C(=O)N1CCC[C@H]1C(=O)Nc1ccc(-c2cnc(-c3ccc(NC(=O)[C@@H]4CCCN4C(=O)C(O)c4nccn4C)cc3)o2)cc1 (stereo partly drawn) [Example D-11, (2S,2′S)-N,N′-(4,4′-(oxazole-2,5-diyl)bis(4,1-phenylene))bis(1-(2-hydroxy-2-(1-methyl-1H-imidazol-2-yl)acetyl)pyrrolidine-2-carboxamide)]",,,EC50 [5]: 1000 to 10000 nM; EC50 (read-out: EC50 1b): 2090 nM
"CC(=O)N1CCC[C@H]1C(=O)Nc1ccc(-c2cnc(-c3ccc(NC(=O)[C@@H]4C=CCN4C(=O)c4cccs4)cc3)o2)cc1 [MS-7, (2S)-N-[4-[5-[4-[[[(2S)-1-acetyl-2-pyrrolidinyl]carbonyl]amino]phenyl]-2-oxazolyl]phenyl]-2,5-dihydro-1-(2-thienylcarbonyl)-1H-pyrrole-2-carboxamide]",1000 to 10000 nM,,
"CC(O)(C(=O)N1C(C(=O)Nc2ccc(-c3cnc(-c4ccc(NC(=O)C5CC6CC6N5C(=O)C(C)(O)c5ccccc5)cc4)o3)cc2)CC2CC21)c1ccccc1 [CB-8, (1S,3S,5S,1′S,3′S,5′S)-N,N′-(1,3-oxazole-2,5-diyldi-4,1-phenylene)bis(2-((2S)-2-hydroxy-2-phenylpropanoyl)-2-azabicyclo[3.1.0]hexane-3-carboxamide)]",,,EC50 [5]: < 4.57 nM; EC50 (read-out: EC50 1b): < 5 nM
"O=C(Nc1ccc(-c2cnc(-c3ccc(NC(=O)[C@@H]4CCCN4C(=O)c4ccccn4)cc3)o2)cc1)[C@@H]1CCCN1C(=O)c1ccccn1 [XY-6, (2S,2′S)-N,N′-(1,3-oxazole-2,5-diyldi-4,1-phenylene)bis(1-(2-pyridinylcarbonyl)-2-pyrrolidinecarboxamide)]",,1000 to 10000 nM,
"CCc1ccccc1C(=O)N1CC=C[C@H]1C(=O)Nc1ccc(-c2ncc(-c3ccc(NC(=O)[C@@H]4CCCN4C(C)=O)cc3)o2)cc1 [Example D-2, (2S)-N-[4-[5-[4-[[[(2S)-1-acetyl-2-pyrrolidinyl]carbonyl]amino]phenyl]-2-oxazolyl]phenyl]-1-(2-ethylbenzoyl)-2,5-dihydro-1H-pyrrole-2-carboxamide]",100 to 999 nM,,
"O=C(Nc1ccc(-c2nnc(-c3ccc(NC(=O)[C@@H]4CCC(=O)N4C(=O)OCc4ccccc4)cc3)o2)cc1)[C@@H]1CCC(=O)N1C(=O)OCc1ccccc1 [RK-2, dibenzyl (2S,2′S)-2,2′-(1,3,4-oxadiazole-2,5-diylbis(4,1-phenylenecarbamoyl))bis(5-oxo-1-pyrrolidinecarboxylate)]",1000 to 10000 nM,,
"CC(C)C(C(=O)N1CCC[C@H]1C(=O)Nc1ccc(-c2cnc(-c3ccc(NC(=O)[C@@H]4CCCN4C(=O)C(C(C)C)N4C(=O)C5C6C=CC(C6)C5C4=O)cc3)o2)cc1)N1C(=O)C2C3C=CC(C3)C2C1=O (stereo partly drawn) [JR-19, (2S,2′S)-N,N′-(2,5-oxazolediyldi-4,1-phenylene)bis[1-[2-(1,3,3a,4,7,7a-hexahydro-1,3-dioxo-4,7-methano-2H-isoindol-2-yl)-3-methyl-1-oxobutyl]-2-pyrrolidinecarboxamide]]",,100 to 999 nM,
"Cn1cccc1CC(=O)N1CCC[C@H]1C(=O)Nc1ccc(-c2cnc(-c3ccc(NC(=O)[C@@H]4CCCN4C(=O)Cc4cccn4C)cc3)o2)cc1 [XY-40, (2S,2′S)-N,N′-(1,3-oxazole-2,5-diyldi-4,1-phenylene)bis(1-((1-methyl-1H-pyrrol-2-yl)acetyl)-2-pyrrolidinecarboxamide)]",,100 to 999 nM,
"CCOc1ccccc1C(=O)N1CCC[C@H]1C(=O)Nc1ccc(-c2nnc(-c3ccc(NC(=O)[C@@H]4CCCN4C(=O)c4ccccc4OCC)cc3)o2)cc1 [RK-8, (2S,2′S)-N,N′-(1,3,4-oxadiazole-2,5-diyldi-4,1-phenylene)bis(1-(2-ethoxybenzoyl)-2-pyrrolidinecarboxamide)]",1000 to 10000 nM,,EC50 [4]: 1850 nM
"CN(C)[C@H](C(=O)N1CCC[C@H]1C(=O)Nc1ccc(-c2cnc(-c3ccc(NC(=O)[C@@H]4CCCN4C(=O)[C@H]([C@@H](O)c4ccccc4)N(C)C)cc3)o2)cc1)[C@@H](O)c1ccccc1 [JR-13, (S,S,2S)-N,N′-(4,4′-(oxazole-2,5-diyl)bis(4,1-phenylene))bis(1-((2S,3S)-2-(dimethylamino)-3-hydroxy-3-phenylpropanoyl)pyrrolidine-2-carboxamide)]",,,EC50 [3]: 100 to 999 nM; EC50 (read-out: EC50 1b): 112 nM
"CC1(C(=O)N2CCC[C@H]2C(=O)Nc2ccc(-c3cnc(-c4ccc(NC(=O)[C@@H]5CCCN5C(=O)C5(C)CC5)cc4)o3)cc2)CC1 [XY-39, (2S,2′S)-N,N′-(1,3-oxazole-2,5-diyldi-4,1-phenylene)bis(1-((1-methylcyclopropyl)carbonyl)-2-pyrrolidinecarboxamide)]",,100 to 999 nM,
"CC(C)(C)O[C@@H]1C[C@@H](C(=O)Nc2ccc(-c3cc(-c4ccc(NC(=O)[C@@H]5C[C@@H](OC(C)(C)C)CN5C(=O)OCc5ccccc5)cc4)[nH]n3)cc2)N(C(=O)OCc2ccccc2)C1 [OL-49, dibenzyl (2S,4R,2′S,4′R)-2,2′-(1H-pyrazole-3,5-diylbis(4,1-phenylenecarbamoyl))bis(4-tert-butoxy-1-pyrrolidinecarboxylate)]",100 to 999 nM,,EC50 [4]: 230 nM
"O=C(Nc1ccc(-c2cnc(-c3ccc(NC(=O)[C@@H]4C[C@@H](O)CN4C(=O)CC4CC4)cc3)o2)cc1)[C@@H]1C[C@@H](O)CN1C(=O)CC1CC1 [XY-44, (2S,4R,2′S,4′R)-N,N′-(1,3-oxazole-2,5-diyldi-4,1-phenylene)bis(1-(cyclopropylacetyl)-4-hydroxy-2-pyrrolidinecarboxamide)]",,1000 to 10000 nM,
"CN(C)[C@@H](C(=O)N1CC[C@@H](NC(=O)Nc2ccc(-c3cnc(-c4ccc(NC(=O)N[C@@H]5CCN(C(=O)[C@@H](c6ccccc6)N(C)C)C5)cc4)o3)cc2)C1)c1ccccc1 [FY-8, N′,N′″-(1,3-oxazole-2,5-diyldi-4,1-phenylene)bis(1-((3R)-1-((2R)-2-(dimethylamino)-2-phenylacetyl)-3-pyrrolidinyl)urea)]",100 to 999 nM,,
"O=C(Nc1ccc(-c2cnc(-c3ccc(NC(=O)[C@@H]4CCCN4C(=O)C4CCC4)cc3)o2)cc1)[C@@H]1CCCN1C(=O)C1CCC1 [JG-9, (2S,2′S)-N,N′-(1,3-oxazole-2,5-diyldi-4,1-phenylene)bis(1-(cyclobutylcarbonyl)-2-pyrrolidinecarboxamide)]",100 to 999 nM,,
"COc1cccc2c(C(=O)N[C@@H](C)C(=O)Nc3ccc(-c4nnc(-c5ccc(NC(=O)[C@H](C)NC(=O)c6nc(Cl)cc7c(OC)cccc67)cc5)o4)cc3)nc(Cl)cc12 [RK-33, N,N′-(1,3,4-oxadiazole-2,5-diylbis(4,1-phenyleneimino((2S)-1-oxo-1,2-propanediyl)))bis(3-chloro-5-methoxy-1-isoquinolinecarboxamide)]",,100 to 999 nM,
